Measurements published in patent publication US20220007644A1, “COMPOSITIONS COMPRISING PYRIDINE CARBOXYLATE HERBICIDES WITH PHOTOSYSTEM II AND OPTIONAL HPPD INHIBITOR HERBICIDES” (Corteva Agriscience LLC, priority 2018, published 2022).
Where “and” joins values, the source holds several entries; their conditions need not be identical. Equal entries are not always repeated.

What was measured:
Format in all cases: in vivo
[1] = tested on: HORVS, Hordeum vulgare (spring barley); experiment: Greenhouse postemergence phytotoxicity on crop (visual injury, 20-22 d)
From the text: (§1) Greenhouse Trial Methodology—Evaluation of Postemergence Herbicidal Effect
(§2) Seeds of the desired test plant species were planted in a 90:10% v/v (volume/volume) mixture of PRO-MIX® BX (Premier Tech Horticulture, Quakertown, Pa., USA) and PROFILE®GREENS GRADE™ (Profile Products LLC, Buffalo Grove, Ill., USA) planting mixture, which typically has a pH of 5.2 to 6.2 and an organic matter content of at least 50 percent, in plastic pots with a surface area of 103.2 square centimeters (cm^2). In some aspects, to help ensure good germination and healthy plants, a fungicide treatment and/or other chemical or physical treatment was applied. The plants were grown for 7-36 days (d) in a greenhouse with an approximate 14-hour (h) photoperiod which was maintained at about 23° C. during the day and 22° C. during the night. Nutrients and water were added on a regular basis and supplemental lighting was provided with overhead metal halide 1000-Watt lamps as necessary. The plants were employed for testing when they reached the second or third true leaf stage.
(§3) Emulsifiable concentrates of each of each pyridine carboxylate herbicide (Compound A or Compound B) were prepared at 100 grams acid equivalent per liter (g ae/L). The emulsifiable concentrates also included a safener, cloquintocet-mexyl, at 120 grams active ingredient per liter (g ai/L), unless otherwise noted below. An aliquot of each emulsifiable concentrate was placed in a 25 mL glass vial and diluted with an aqueous mixture of 1.25% (v/v) ACTIROB® B esterified rapeseed oil (Bayer Crop Science, Research Triangle Park, N.C., USA) or MSO® Concentrate with LECI-TECH® methylated soybean oil (Loveland Products, Loveland, Colo., USA) to obtain concentrated stock solutions at the highest application rate for each herbicide, based upon a 12 milliliter (mL) application volume at a rate of 187 liters per hectare (L/ha). The concentrated stock solutions were further diluted with an aqueous mixture of 1.25% v/v ACTIROB® B or MSO® Concentrate with LECI-TECH® to obtain stock solutions at reduced application rates for each herbicide. Spray solutions of the herbicide combinations (Compound A or Compound B plus PS-II herbicide and optional HPPD herbicide) were prepared by adding weighed amounts or aliquots of the PS-II herbicide and optional HPPD herbicide to the stock solutions of Compound A or Compound B to form 12-mL spray solutions in two- or three-way combinations.
(§4) The spray solutions were applied to the plant material with an overhead Mandel track sprayer equipped with 8002E nozzles calibrated to deliver 187 L/ha over an application area of 0.503 square meters (m^2) at a spray height of 18 inches ([…] centimeters (cm)) above the average plant canopy. Control plants were sprayed in the same manner with the solvent blank. All pyridine carboxylate herbicide (component a) application rates are given as “g ae/ha” and all PS II inhibitor herbicide (component b) and HPPD inhibitor herbicide (component c) application rates are given as “g ai/ha.”
(§5) The treated plants and control plants were placed in a greenhouse as described above and watered by sub-irrigation to prevent wash-off of the test compounds. After 20-22 d, the condition of the test plants as compared with that of the control plants was determined visually and scored on a scale of 0 to 100 percent where 0 corresponds to no injury and 100 corresponds to complete kill.

ZEAMX, Zea mays (maize) = experiment: as above; conditions: Compound A 10 g/ha
From the text: as §1, §2, §3, §4, §5

[2] = tested on: TRZAS, Triticum aestivum (spring wheat); experiment: as above
From the text: as §1, §2, §3, §4, §5

[3] = tested on: AVEFA, Avena fatua (wild oat); experiment: Greenhouse postemergence herbicidal effect (visual injury, 20-22 d)
From the text: as §1, §2, §3, §4, §5

[4] = tested on: AMARE, Amaranthus retroflexus (pigweed); experiment: as above
From the text: as §1, §2, §3, §4, §5

[5] = tested on: KCHSC, Kochia scoparia (kochia); experiment: as above
From the text: as §1, §2, §3, §4, §5

[6] = tested on: CIRAR, Cirsium arvense (Canada thistle); experiment: as above; conditions: for % visual injury, Obs: CIRAR, Compound A 10 g/ha
From the text: as §1, §2, §3, §4, §5

[7] = tested on: LEFCH, Leptochloa chinensis (Chinese sprangletop); experiment: as above; conditions: Compound A 10 g/ha, without cloquintocet-mexyl safener
From the text: as §1, §2, §3, §4, §5

[8] = tested on: BRSNN, Brassica napus (spring rape); experiment: as above
From the text: as §1, §2, §3, §4, §5

[9] = tested on: SORVU, Sorghum vulgare (grain sorghum); experiment: as above
From the text: as §1, §2, §3, §4, §5

[10] = tested on: CYPES, Cyperus esculentus (nutsedge); experiment: as above; conditions: Compound A 10 g/ha
From the text: as §1, §2, §3, §4, §5

[11] = tested on: CHEAL, Chenopodium album L. (common lambsquarters); experiment: as above
From the text: as §1, §2, §3, §4, §5

[12] = tested on: RUMOB, Rumex obtusifolius (broad-leaf dock); experiment: as above; conditions: Compound A 10 g/ha
From the text: as §1, §2, §3, §4, §5

[13] = tested on: STEME, Stellaria media (chickweed); experiment: as above; conditions: STEME, Compound A 10 g/ha
From the text: as §1, §2, §3, §4, §5

[14] = tested on: IPOHE, Ipomoea hederacea (ivyleaf morningglory); experiment: as above
From the text: as §1, §2, §3, §4, §5

[15] = tested on: SASKR, Salsola kali (Russian thistle); experiment: as above
From the text: as §1, §2, §3, §4, §5

[16] = tested on: ECHCG, Echinochloa crus-galli (barnyard grass); experiment: as above; conditions: Compound A 10 g/ha, without cloquintocet-mexyl safener
From the text: as §1, §2, §3, §4, §5

[17] = tested on: HELAN, Helianthus annuus (common sunflower); experiment: as above; conditions: Compound A 10 g/ha, without cloquintocet-mexyl safener
From the text: as §1, §2, §3, §4, §5

[18] = tested on: ABUTH, Abutilon theophrasti (velvetleaf); experiment: as above; conditions: for % visual injury, Obs: ABUTH, Compound A 10 g/ha
From the text: as §1, §2, §3, §4, §5

[19] = without cloquintocet-mexyl safener

N#CCOC(=O)c1nc(-c2ccc3cc[nH]c3c2F)c(F)c(N)c1Cl [Compound A, cyanomethyl 4-amino-3-chloro-5-fluoro-6-(7-fluoro-1H-indol-6-yl)pyridine-2-carboxylate]
visual injury ([1]; 7.5 g ae/ha alone): 0% and 8%
visual injury ([1]; 10 g ae/ha alone): 0%
% visual injury, Obs (ZEAMX, Zea mays (maize)): 0%
visual injury ([2]; 7.5 g ae/ha alone): 0%
visual injury ([2]; 10 g ae/ha alone): 0%
% visual injury, Obs ([2]; TRZAS, Compound A 10 g/ha): 3%
visual injury ([3]; 7.5 g ae/ha alone): 0%
visual injury ([3]; 10 g ae/ha alone): 0%
% visual injury, Obs ([3]; AVEFA, Compound A 10 g/ha, without cloquintocet-mexyl safener): 0%
visual injury ([4]; 7.5 g ae/ha alone): 78% and 70% and 90%
visual injury ([4]; 10 g ae/ha alone): 73% and 90% and 85%
% visual injury, Obs ([4]; AMARE, Compound A 10 g/ha): 88%
visual injury ([5]; 7.5 g ae/ha alone): 63% and 50% and 65% and 70%
visual injury ([5]; 10 g ae/ha alone): 63% and 58% and 70%
% visual injury, Obs ([5]; KCHSC, Compound A 10 g/ha, without cloquintocet-mexyl safener): 88%
visual injury ([6]; 10 g ae/ha alone): 40% and 60% and 30% and 55%
% visual injury, Obs [6]: 60%
% visual injury, Obs [6, 19]: 28%
% visual injury, Obs [7]: 0%
visual injury ([8]; 10 g ae/ha alone): 60% and 45% and 73%
% visual injury, Obs ([8]; BRSNN, Compound A 10 g/ha): 65%
visual injury ([9]; 7.5 g ae/ha alone): 0%
visual injury ([9]; 10 g ae/ha alone): 0%
% visual injury, Obs ([9]; SORVU, Compound A 10 g/ha, without cloquintocet-mexyl safener): 0%
% visual injury, Obs [10]: 8%
% visual injury, Obs [10, 19]: 0%
visual injury ([11]; 7.5 g ae/ha alone): 88% and 70% and 75%
visual injury ([11]; 10 g ae/ha alone): 93% and 83% and 78% and 80%
% visual injury, Obs [12]: 13%
% visual injury, Obs [12, 19]: 35%
% visual injury, Obs [13]: 90%
% visual injury, Obs [13, 19]: 88%
visual injury ([14]; 7.5 g ae/ha alone): 20%
visual injury ([14]; 10 g ae/ha alone): 25%
% visual injury, Obs ([14]; IPOHE, Compound A 10 g/ha, without cloquintocet-mexyl safener): 15%
visual injury ([15]; 7.5 g ae/ha alone): 60% and 45%
visual injury ([15]; 10 g ae/ha alone): 63% and 60%
% visual injury, Obs [16]: 58%
% visual injury, Obs [17]: 100%
visual injury ([18]; 7.5 g ae/ha alone): 68%
visual injury ([18]; 10 g ae/ha alone): 80%
% visual injury, Obs [18]: 80%
% visual injury, Obs [18, 19]: 75%
